Experimental data taken from ChEMBL document CHEMBL4800722, “Data for DCP probe BI 605906” (2021).

Key:
[1] = biological target: AMPK alpha2/beta1/gamma1 (Homo sapiens) (UniProt P54646+P54619+Q9Y478); test: AMPK A2B1G1 Invitrogen Lab (UK) kinase screen (BI); assay type: protein-complex assay; details: Compound concentration 1.0 uM
[2] = biological target: Phosphodiesterase 3 (Homo sapiens) (UniProt Q14432+Q13370); test: PDE-III/HU Eurofins SafetyScreen44 (BI); assay type: protein assay; details: Compound concentration 10.0 uM
[3] = biological target: Alpha-1B adrenergic receptor (Homo sapiens) (UniProt P35368); details: Compound concentration 10.0 uM
[4] = biological target: Rhodopsin kinase GRK1 (Homo sapiens) (UniProt Q15835); details: Compound concentration 1.0 uM
[5] = biological target: T1, Interleukin-1 receptor-associated kinase 3 (Homo sapiens) (UniProt Q9Y616)
T1 sequence (whole entry): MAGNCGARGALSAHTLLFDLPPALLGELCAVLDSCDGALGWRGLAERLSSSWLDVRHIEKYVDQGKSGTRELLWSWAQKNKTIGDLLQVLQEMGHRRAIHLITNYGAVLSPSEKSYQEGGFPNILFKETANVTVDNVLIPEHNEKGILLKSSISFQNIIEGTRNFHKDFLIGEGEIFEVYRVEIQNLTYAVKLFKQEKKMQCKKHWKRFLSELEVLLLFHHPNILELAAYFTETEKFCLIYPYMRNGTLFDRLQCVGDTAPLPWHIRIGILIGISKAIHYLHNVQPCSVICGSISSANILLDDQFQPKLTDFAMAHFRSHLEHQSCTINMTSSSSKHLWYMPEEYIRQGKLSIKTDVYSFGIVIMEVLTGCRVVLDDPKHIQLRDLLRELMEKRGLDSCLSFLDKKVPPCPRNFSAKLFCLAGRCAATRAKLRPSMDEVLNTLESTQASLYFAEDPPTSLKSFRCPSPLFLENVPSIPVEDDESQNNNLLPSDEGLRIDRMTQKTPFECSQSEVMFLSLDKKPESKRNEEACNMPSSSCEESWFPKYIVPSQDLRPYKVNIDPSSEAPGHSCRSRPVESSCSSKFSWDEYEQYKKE

[6] = biological target: Fibroblast growth factor receptor 3 (Homo sapiens) (UniProt P22607); details: Compound concentration 1.0 uM
[7] = biological target: Tyrosine-protein kinase Yes (Homo sapiens) (UniProt P07947); test: YES1 Invitrogen Lab (UK) kinase screen (BI); details: Compound concentration 1.0 uM
[8] = biological target: Cyclin-dependent kinase 5/CDK5 activator 1 (Homo sapiens) (UniProt Q00535+Q15078); details: Compound concentration 1.0 uM
[9] = biological target: Casein kinase I isoform epsilon (Homo sapiens) (UniProt P49674); test: CSNK1E Invitrogen Lab (UK) kinase screen (BI); details: Compound concentration 1.0 uM
[10] = biological target: Mitogen-activated protein kinase kinase kinase kinase 4 (Homo sapiens) (UniProt O95819)
Sequence of Mitogen-activated protein kinase kinase kinase kinase 4 (Homo sapiens) (O95819 2-1239 limits assumed): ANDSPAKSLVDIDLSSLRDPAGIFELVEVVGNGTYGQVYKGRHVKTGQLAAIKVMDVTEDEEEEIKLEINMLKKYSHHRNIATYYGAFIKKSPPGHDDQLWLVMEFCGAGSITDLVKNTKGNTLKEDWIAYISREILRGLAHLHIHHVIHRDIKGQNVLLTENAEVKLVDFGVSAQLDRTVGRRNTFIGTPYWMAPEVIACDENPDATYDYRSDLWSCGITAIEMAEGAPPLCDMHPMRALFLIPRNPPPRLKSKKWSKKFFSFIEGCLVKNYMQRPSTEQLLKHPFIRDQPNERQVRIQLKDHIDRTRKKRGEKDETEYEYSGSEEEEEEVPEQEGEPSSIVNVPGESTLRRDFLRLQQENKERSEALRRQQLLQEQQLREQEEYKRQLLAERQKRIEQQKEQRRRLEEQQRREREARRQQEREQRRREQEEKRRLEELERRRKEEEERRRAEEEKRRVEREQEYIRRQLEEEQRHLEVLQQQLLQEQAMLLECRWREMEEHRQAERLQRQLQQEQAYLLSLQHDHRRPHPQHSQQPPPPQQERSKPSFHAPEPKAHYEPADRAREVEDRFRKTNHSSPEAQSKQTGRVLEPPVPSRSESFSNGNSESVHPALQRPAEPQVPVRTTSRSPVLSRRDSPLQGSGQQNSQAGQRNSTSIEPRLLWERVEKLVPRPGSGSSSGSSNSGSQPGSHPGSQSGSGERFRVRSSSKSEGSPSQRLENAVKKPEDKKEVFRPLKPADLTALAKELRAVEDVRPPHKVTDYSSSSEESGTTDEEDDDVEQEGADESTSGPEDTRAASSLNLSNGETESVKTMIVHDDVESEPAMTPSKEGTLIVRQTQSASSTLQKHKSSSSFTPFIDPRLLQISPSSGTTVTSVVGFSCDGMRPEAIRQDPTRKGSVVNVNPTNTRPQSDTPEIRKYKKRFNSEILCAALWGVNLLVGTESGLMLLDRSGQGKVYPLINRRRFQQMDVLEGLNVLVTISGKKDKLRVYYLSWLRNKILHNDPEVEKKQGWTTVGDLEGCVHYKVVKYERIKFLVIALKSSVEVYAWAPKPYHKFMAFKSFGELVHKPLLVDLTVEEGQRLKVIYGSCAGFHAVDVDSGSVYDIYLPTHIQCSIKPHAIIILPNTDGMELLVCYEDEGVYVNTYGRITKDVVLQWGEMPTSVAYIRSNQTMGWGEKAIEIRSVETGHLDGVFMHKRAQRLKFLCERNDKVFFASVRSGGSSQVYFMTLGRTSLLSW

[11] = biological target: Phosphatidylinositol 4-phosphate 5-kinase type-1 alpha (Homo sapiens) (UniProt Q99755); test: PIP5K1A Invitrogen Lab (UK) kinase screen (BI); details: Compound concentration 1.0 uM
[12] = biological target: Casein kinase II subunit alpha' (Homo sapiens) (UniProt P19784); details: Compound concentration 1.0 uM
[13] = biological target: Serine/threonine-protein kinase VRK2 (Homo sapiens) (UniProt Q86Y07); details: Compound concentration 1.0 uM
[14] = biological target: Serine/threonine-protein kinase pim-2 (Homo sapiens) (UniProt Q9P1W9); details: Compound concentration 10.0 uM
Sequence of Serine/threonine-protein kinase pim-2 (Homo sapiens) (Q9P1W9 whole entry, looked up): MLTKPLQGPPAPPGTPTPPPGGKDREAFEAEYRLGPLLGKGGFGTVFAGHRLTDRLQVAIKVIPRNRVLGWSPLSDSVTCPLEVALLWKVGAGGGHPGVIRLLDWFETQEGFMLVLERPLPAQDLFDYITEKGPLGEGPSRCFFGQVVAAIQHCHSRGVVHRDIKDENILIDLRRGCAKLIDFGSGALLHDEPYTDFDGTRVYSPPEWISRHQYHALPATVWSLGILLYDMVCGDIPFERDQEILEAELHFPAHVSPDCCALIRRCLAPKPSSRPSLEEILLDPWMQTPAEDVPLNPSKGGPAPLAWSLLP

[15] = biological target: MAP/microtubule affinity-regulating kinase 4 (Homo sapiens) (UniProt Q96L34); details: Compound concentration 1.0 uM
[16] = biological target: Ribosomal protein S6 kinase alpha-6 (Homo sapiens) (UniProt Q9UK32); details: Compound concentration 1.0 uM
[17] = biological target: Serine/threonine-protein kinase ULK2 (Homo sapiens) (UniProt Q8IYT8); details: Compound concentration 1.0 uM
Sequence of Serine/threonine-protein kinase ULK2 (Homo sapiens) (Q8IYT8 whole entry): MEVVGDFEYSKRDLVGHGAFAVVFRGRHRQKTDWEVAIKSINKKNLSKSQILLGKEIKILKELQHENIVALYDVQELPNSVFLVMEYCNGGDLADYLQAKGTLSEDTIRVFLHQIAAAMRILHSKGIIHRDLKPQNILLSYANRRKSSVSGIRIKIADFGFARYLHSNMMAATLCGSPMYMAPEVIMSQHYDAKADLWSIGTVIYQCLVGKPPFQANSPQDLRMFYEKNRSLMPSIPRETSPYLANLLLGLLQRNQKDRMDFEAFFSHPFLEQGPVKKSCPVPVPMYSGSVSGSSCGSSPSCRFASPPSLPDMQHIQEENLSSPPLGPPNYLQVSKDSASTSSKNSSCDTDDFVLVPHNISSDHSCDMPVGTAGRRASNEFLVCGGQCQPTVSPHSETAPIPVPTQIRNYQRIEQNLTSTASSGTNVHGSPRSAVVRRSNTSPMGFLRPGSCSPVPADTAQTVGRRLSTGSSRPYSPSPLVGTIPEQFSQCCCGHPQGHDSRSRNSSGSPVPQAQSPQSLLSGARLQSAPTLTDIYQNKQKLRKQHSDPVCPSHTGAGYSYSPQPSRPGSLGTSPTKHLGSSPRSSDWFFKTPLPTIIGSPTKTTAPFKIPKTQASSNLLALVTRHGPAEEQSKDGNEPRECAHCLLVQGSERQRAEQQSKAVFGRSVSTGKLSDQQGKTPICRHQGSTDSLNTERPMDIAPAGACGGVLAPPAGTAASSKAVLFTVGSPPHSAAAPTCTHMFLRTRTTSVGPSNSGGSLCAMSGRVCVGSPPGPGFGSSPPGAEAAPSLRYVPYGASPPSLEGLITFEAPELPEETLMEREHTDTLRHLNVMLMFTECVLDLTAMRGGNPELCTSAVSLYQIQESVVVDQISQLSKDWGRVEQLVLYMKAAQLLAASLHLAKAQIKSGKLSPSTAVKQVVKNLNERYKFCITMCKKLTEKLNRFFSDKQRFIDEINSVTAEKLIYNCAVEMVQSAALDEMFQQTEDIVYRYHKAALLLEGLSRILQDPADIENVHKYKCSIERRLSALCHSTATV

[18] = biological target: G protein-coupled receptor kinase 5 (Homo sapiens) (UniProt P34947); details: Compound concentration 1.0 uM
[19] = biological target: Mitogen-activated protein kinase 7 (Homo sapiens) (UniProt Q13164); details: Compound concentration 1.0 uM
[20] = biological target: Serine/threonine-protein kinase MARK2 (Homo sapiens) (UniProt Q7KZI7)
Sequence of Serine/threonine-protein kinase MARK2 (Homo sapiens) (Q7KZI7 whole entry): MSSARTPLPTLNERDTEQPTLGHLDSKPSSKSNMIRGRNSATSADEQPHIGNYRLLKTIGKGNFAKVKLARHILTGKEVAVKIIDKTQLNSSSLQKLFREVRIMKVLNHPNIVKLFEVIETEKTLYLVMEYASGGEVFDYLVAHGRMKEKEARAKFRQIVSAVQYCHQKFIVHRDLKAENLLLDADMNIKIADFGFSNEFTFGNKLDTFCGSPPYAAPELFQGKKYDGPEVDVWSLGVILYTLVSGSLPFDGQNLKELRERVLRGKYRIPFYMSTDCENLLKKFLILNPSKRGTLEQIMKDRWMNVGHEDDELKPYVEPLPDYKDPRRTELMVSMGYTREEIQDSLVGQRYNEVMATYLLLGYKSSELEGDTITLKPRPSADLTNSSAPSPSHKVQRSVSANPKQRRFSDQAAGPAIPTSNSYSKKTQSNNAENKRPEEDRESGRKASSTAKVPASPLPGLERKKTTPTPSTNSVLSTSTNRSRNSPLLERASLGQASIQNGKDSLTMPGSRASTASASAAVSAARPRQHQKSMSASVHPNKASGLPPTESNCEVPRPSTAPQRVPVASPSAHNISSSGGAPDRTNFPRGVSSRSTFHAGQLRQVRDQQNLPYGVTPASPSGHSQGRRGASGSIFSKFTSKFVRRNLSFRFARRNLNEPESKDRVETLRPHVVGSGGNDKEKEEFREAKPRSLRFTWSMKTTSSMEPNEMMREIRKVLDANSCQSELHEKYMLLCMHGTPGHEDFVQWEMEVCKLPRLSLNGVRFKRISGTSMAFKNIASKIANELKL

[21] = biological target: Tyrosine-protein kinase Tec (Homo sapiens) (UniProt P42680); details: Compound concentration 1.0 uM
[22] = biological target: Proto-oncogene tyrosine-protein kinase Src (Homo sapiens) (UniProt P12931); test: SRC N1 Invitrogen Lab (UK) kinase screen (BI); details: Compound concentration 1.0 uM
[23] = biological target: Protein kinase C epsilon type (Homo sapiens) (UniProt Q02156); test: PRKCE Invitrogen Lab (UK) kinase screen (BI); details: Compound concentration 1.0 uM
[24] = biological target: AMP-activated protein kinase alpha-2/beta-1/gamma-3 (Homo sapiens) (UniProt P54646+Q9Y478+Q9UGI9); details: Compound concentration 1.0 uM
[25] = biological target: Prostaglandin G/H synthase 1 (Homo sapiens) (UniProt P23219); details: Compound concentration 10.0 uM
[26] = biological target: Tyrosine-protein kinase Fyn (Homo sapiens) (UniProt P06241); details: Compound concentration 1.0 uM
[27] = biological target: MAP kinase-activated protein kinase 5 (Homo sapiens) (UniProt Q8IW41); test: PRAK DUNDEE kinase screen (BI); details: Compound concentration 10.0 uM
[28] = biological target: Cannabinoid receptor 2 (Homo sapiens) (UniProt P34972); details: Compound concentration 10.0 uM
[29] = biological target: Angiotensin-converting enzyme (Oryctolagus cuniculus) (UniProt P12822); details: Compound concentration 10.0 uM
[30] = biological target: Mast/stem cell growth factor receptor Kit (Homo sapiens) (UniProt P10721)
Sequence of Mast/stem cell growth factor receptor Kit (Homo sapiens) (P10721 whole entry): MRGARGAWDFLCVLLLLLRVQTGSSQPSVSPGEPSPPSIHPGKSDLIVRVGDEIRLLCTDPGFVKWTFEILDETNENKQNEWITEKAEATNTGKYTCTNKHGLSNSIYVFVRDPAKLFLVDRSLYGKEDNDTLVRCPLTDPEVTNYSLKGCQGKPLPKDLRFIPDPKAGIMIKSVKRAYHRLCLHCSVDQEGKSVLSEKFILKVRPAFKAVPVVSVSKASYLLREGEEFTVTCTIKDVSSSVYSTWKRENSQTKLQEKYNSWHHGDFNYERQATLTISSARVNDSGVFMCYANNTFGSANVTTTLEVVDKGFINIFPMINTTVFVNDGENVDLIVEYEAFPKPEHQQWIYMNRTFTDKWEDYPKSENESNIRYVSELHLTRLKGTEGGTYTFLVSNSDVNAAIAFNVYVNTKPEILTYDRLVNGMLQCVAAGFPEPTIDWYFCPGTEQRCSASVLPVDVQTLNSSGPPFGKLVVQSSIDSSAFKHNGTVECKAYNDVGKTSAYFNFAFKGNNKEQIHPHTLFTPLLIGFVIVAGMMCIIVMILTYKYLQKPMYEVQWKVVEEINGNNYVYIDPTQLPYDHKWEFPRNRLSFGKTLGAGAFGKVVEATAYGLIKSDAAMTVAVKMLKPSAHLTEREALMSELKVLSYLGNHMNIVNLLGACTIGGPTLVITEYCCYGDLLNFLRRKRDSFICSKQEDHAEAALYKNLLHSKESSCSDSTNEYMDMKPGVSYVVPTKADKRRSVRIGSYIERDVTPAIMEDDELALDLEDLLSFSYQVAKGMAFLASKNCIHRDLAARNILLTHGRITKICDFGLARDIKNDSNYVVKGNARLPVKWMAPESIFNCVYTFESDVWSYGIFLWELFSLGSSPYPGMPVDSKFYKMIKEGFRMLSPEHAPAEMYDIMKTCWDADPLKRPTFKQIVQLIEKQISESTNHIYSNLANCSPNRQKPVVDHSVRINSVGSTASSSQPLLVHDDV

[31] = biological target: Ephrin type-A receptor 3 (Homo sapiens) (UniProt P29320); test: EPHA3 Invitrogen Lab (UK) kinase screen (BI); details: Compound concentration 1.0 uM
[32] = biological target: AMP-activated protein kinase, AMPK (Rattus norvegicus) (UniProt P54645+Q09137+P80386+P80385+Q9QZH4+Q6V7V4+D4A7E4); test: AMPK DUNDEE kinase screen (BI); assay type: protein-complex assay; details: Compound concentration 10.0 uM
[33] = biological target: Dual specificity tyrosine-phosphorylation-regulated kinase 1A (Homo sapiens) (UniProt Q13627); details: Compound concentration 1.0 uM
[34] = biological target: Serine/threonine-protein kinase PLK1 (Homo sapiens) (UniProt P53350)
Sequence of Serine/threonine-protein kinase PLK1 (Homo sapiens) (P53350 whole entry): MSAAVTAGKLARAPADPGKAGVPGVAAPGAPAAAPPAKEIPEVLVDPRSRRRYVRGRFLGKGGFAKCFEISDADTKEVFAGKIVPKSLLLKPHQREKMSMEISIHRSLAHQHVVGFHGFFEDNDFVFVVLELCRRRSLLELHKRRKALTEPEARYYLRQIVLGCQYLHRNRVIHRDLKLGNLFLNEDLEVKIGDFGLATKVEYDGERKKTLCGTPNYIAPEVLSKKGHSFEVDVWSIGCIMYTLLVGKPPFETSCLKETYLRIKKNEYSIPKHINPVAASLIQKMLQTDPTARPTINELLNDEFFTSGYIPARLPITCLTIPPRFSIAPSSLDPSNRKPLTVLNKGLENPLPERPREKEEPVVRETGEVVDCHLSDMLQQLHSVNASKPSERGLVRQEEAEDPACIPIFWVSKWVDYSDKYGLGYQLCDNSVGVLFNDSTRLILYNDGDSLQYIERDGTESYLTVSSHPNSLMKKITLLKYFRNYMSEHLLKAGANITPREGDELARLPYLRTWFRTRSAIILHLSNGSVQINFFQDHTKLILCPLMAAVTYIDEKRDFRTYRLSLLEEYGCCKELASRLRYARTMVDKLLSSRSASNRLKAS

Compound: CCC(F)(F)c1cc(N2CCC(S(C)(=O)=O)CC2)nc2sc(C(N)=O)c(N)c12 [BI-605906]
- residual activity [1]: 88%
- residual activity [2]: 31%
- inhibition [3]: -0.02%
- residual activity [4]: 87%
- residual activity ([5]; Compound concentration 0.001 uM): 93%
- residual activity ([5]; Compound concentration 1.0 uM): 24%
- residual activity ([5]; Compound concentration 20.0 uM): 14%
- residual activity [6]: 96%
- residual activity [7]: 74%
- residual activity [8]: 99%
- residual activity [9]: 75%
- residual activity ([10]; Compound concentration 1.0 uM): 95%
- residual activity ([10]; Compound concentration 10.0 uM): 89%
- residual activity [11]: 83%
- residual activity [12]: 87%
- residual activity [13]: 82%
- residual activity [14]: 101%
- residual activity [15]: 100%
- residual activity [16]: 98%
- residual activity [17]: 93%
- residual activity [18]: 96%
- residual activity [19]: 98%
- residual activity ([20]; Compound concentration 1.0 uM): 90%
- residual activity ([20]; Compound concentration 10.0 uM): 87%
- residual activity [21]: 96%
- residual activity [22]: 88%
- residual activity [23]: 127%
- residual activity [24]: 89%
- residual activity [25]: 105%
- residual activity [26]: 97%
- residual activity [27]: 61.1%
- residual activity [28]: 91%
- residual activity [29]: 98%
- residual activity ([30]; Compound concentration 1.0 uM): 89%
- residual activity ([30]; Compound concentration 10.0 uM): 83%
- residual activity [31]: 85%
- residual activity [32]: 79.2%
- residual activity [33]: 91%
- residual activity ([34]; Compound concentration 1.0 uM): 94%
- residual activity ([34]; Compound concentration 10.0 uM): 109%
